Experimental data reported in US7892755B2, “Screening method” (Takeda Pharmaceutical Company Limited, priority 2004, dated 2011).

What was measured:
Assay type in all cases: cell-based
control CHO-K1 cells = experiment: Changes in intracellular calcium levels on FLIPR, control CHO-K1 cells with only expression vector pAKKO-111H
Protocol: (§1) The CHO-K1 cell line (purchased from ATCC) was incubated in HAM F-12 medium (Invitrogen) supplemented with 10% fetal calf serum, unless otherwise indicated. On the day before transfection, the cells were inoculated at 4.5×10^5/10 cm^2 and incubated at 37° C. for 15 hours or more in a CO2 incubator adjusted to 5% CO2 concentration. Using Lipofectamine reagent (Invitrogen), transfection was performed according to modifications of the procedure attached to the reagent. When a 6-well plate was used as the incubator, the transfection was performed as follows. Two tubes each having a 1.5 ml volume were prepared and 100 μl each of Opti-MEM medium (Invitrogen) was dispensed in each tube. Next, 1 μg of the GPR35 expression vector obtained in REFERENCE EXAMPLE 1 and 0.5 μg of Gα15 expression vector (Guthrie cDNA Resource Center) were incorporated into one tube and in another tube, 6 μl of Lipofectamine reagent was charged, which were then mixed together. The mixture was settled for 20 minutes at room temperature. To the solution, 800 μl of Opti-MEM medium was added and the resulting solution mixture for transfection was added to the CHO-K1 cells, which had been previously washed with Opti-MEM medium. The cells were then incubated in a CO2 incubator for 6 hours. After the incubation, the cells were rinsed with PBS (Invitrogen), then detached by 0.05% trypsin-EDTA solution (Invitrogen) and recovered by centrifugal operation. The cells obtained were counted and diluted to 5×10^4 cells per 100 μl of the medium. The dilution was dispensed to a black walled 96-well plate (Costar) at 100 μl per well, followed by incubation overnight in a CO2 incubator. Various test samples were added to the CHO-K1 cells, in which the receptor was transiently expressed, by the transfection procedure described above, whereby changes in intracellular calcium levels were assayed on a FLIPR (Molecular Device).
(§2) To assay the changes in intracellular calcium levels on FLIPR, the following pretreatment was made. First, an assay buffer was prepared to add fluorescence dye Fluo-3AM (DOJIN) to the cells, or to wash the cells immediately before the FLIPR assay. A solution was prepared by adding 20 ml of 1M HEPES (pH 7.4) (DOJIN) to 1000 ml of HBSS (Invitrogen) (hereinafter HBSS/HEPES solution). To the solution, there was added 10 ml of a solution obtained by dissolving 710 mg of Probenecid (Sigma) in 5 ml of 1N NaOH and further adding 5 ml of HBSS/HEPES solution thereto and mixing them. The resulting solution was used as an assay buffer. Next, 50 μg of Fluo-3AM was dissolved in 21 μl of DMSO (DOJIN), and an equal volume of 20% pluronic acid (Molecular Probes) was added to the solution. After mixing them, the mixture was added to 10.6 ml of an assay buffer supplemented with 105 μl of fetal calf serum to give a fluorescence dye solution. After the medium for the transfected CHO-K1 cells was removed, the fluorescence dye solution was immediately dispensed at 100 μl each per well and incubation was carried out in a CO2 incubator for an hour to take up the fluorescence dye into the cells. The incubated cells were washed with the assay buffer described above and set on FLIPR. Test samples to be added to the receptor-expressed CHO-K1 cells were prepared using the assay buffer and simultaneously set on FLIPR.
After the pretreatment described above was made, changes in intracellular calcium levels by the addition of various test samples were assayed on FLIPR. […]

human TGR23 = target: T1, human TGR23 (Homo sapiens, UniProt Q6W5P4); experiment: MAPK phosphorylation in control cells (human TGR23-expressed CHO cells)
T1 construct: expressed in transfected cells; host or cells: CHO cells
T1 sequence (Q6W5P4 1-371): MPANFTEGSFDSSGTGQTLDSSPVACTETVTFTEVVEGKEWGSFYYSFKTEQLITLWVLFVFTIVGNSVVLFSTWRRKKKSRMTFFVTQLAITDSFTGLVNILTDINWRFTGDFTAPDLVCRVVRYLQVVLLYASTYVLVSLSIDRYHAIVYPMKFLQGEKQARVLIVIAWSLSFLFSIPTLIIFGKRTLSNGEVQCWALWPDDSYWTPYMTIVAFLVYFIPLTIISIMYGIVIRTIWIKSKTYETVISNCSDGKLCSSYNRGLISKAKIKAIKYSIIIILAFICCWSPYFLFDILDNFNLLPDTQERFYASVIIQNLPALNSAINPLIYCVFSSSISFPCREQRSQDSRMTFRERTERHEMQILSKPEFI

GPR35 [1] = target: T2, GPR35 (Homo sapiens, UniProt Q9HC97, S294R); experiment: Suppression of forskolin-increased intracellular cAMP levels in human GPR35-expressed CHO cell line; set-up: The resulting fragment (ca. 1 kb) was introduced into vector pAKKO-111; expressed in transfected cells; details: 2 μM forskolin, 37° C., 30 minutes (FIG. 3)
T2 sequence (Q9HC97 whole entry S294R, the tested form may be a part): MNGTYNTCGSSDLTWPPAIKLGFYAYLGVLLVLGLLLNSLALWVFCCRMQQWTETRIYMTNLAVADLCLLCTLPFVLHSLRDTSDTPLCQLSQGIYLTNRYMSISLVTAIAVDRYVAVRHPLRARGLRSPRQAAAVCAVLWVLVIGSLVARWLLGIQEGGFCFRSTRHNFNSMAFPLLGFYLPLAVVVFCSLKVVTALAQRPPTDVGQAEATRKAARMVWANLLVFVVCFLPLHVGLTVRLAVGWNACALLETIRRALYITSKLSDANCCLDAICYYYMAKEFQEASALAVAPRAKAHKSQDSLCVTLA
Protocol: The human GPR35-expressed CHO cells obtained in REFERENCE EXAMPLE 1 were washed with an assay buffer (HBSS (Gibco/BRL) supplemented with 0.1% bovine serum albumin and 0.2 mM isobutylmethylxanthine), followed by incubation at 37° C. for 30 minutes under conditions of 5% CO2. DNQX and NBQX were diluted with the assay buffer and the dilutions were added to the cells at respective concentrations. Thereafter forskolin was added to become 2 μM. Incubation was performed at 37° C. for 30 minutes under conditions of 5% CO2. The culture supernatant was discarded and the intracellular cAMP level was assayed on a plate reader (EnVision, Perkin Elmer) in accordance with the protocol of cAMP Screen Kit (Applied Biosystems).

GPR35 [2] = target: T2, GPR35; experiment: Changes in intracellular calcium levels on FLIPR, CHO-K1 cells transiently co-expressing GPR35 and Gα15; set-up: The resulting fragment (ca. 1 kb) was introduced into vector pAKKO-111; expressed in transfected cells; host or cells: CHO-K1 (ATCC), transient transfection; details: Fluo-3AM, 0.3-10 μM shown for DNQX and ellagic acid (FIG. 1, 2)
Protocol: as §1, §2
After the pretreatment described above was made, changes in intracellular calcium levels by the addition of various test samples were assayed on FLIPR.

Q: With `O=C1N=c2cc([N+](=O)[O-])c([N+](=O)[O-])cc2=NC1=O` [DNQX, 6,7-dinitroquinoxaline-2,3-dione] as the compound, how does the “response (increased intracellular calcium levels) in control cells” value (control CHO-K1 cells) read?
A: not observed

Q: What about the “level of phosphorylated MAP-kinase in control cells” value (human TGR23) of the same compound?
A: any enhanced level of phosphorylation was not observed

Q: And the “decrease of intracellular cAMP levels increased by forskolin addition” value (GPR35 [1])?
A: dose-dependent and specific decrease

Q: What about the “response (increased intracellular calcium levels)” value (GPR35 [2]) of the same compound?
A: dose-dependently responded (increased intracellular calcium levels)

Q: What does the source list for `NS(=O)(=O)c1cccc2c3c(cc([N+](=O)[O-])c12)=NC(=O)C(=O)N=3` [NBQX, 6-nitro-7-sulfamoylbenzo[f]quinoxaline-2,3-dione]?
A: response (increased intracellular calcium levels) in control cells (control CHO-K1 cells): not observed; level of phosphorylated MAP-kinase in control cells (human TGR23): any enhanced level of phosphorylation was not observed; decrease of intracellular cAMP levels increased by forskolin addition (GPR35 [1]): dose-dependent and specific decrease; response (increased intracellular calcium levels) (GPR35 [2]): dose-dependently responded (increased intracellular calcium levels)
